Test results published in PubChem BioAssay (NCI).
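The compound was tested at five concentrations on cells cultured in 96-well plates, with a 48-hour exposure period. TGI denotes the concentration required for complete inhibition of growth.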

tested on: CCRF-CEM leukemia; assay: NCI tumour cell line growth inhibition, 48 h

`CO[C@H]1c2cccc3cccc(c23)[C@@H]1n1[nH]c(=O)n(C(C)(C)C)c1=O` and `CCC(C)C(C(=O)N/N=C1/SCC(=O)N1c1ccccc1)C(=O)N/N=C1/SCC(=O)N1c1ccccc1` (stereo unspecified) cannot be ordered by TGI: greater than 100 µM for the first, greater than 100 µM for the second.

`Cc1ccc2nc(CN3CCCC(O)C3)cc(=O)n2c1` (stereo unspecified) and `OC1(CCc2ccccc2)COC(C(F)(F)F)(C(F)(F)F)C1` (stereo unspecified) cannot be ordered by TGI: greater than 100 µM for the first, greater than 100 µM for the second.

tested on: HCT-116 colon; assay: NCI tumour cell line growth inhibition, 48 h

`COC(=O)C1=C(O)C(C(=O)OC)[C@]2(O)[C@H](C(=O)OC)[C@H]1C[C@@H](c1ccc(F)cc1)[C@H]2C(=O)OC` (stereo partly specified) and `COC(=O)c1c(O)ccc2c1c1c(n2Cc2ccccc2)C(=O)c2ccccc2C1=O` are within 1.5-fold of each other in TGI: 20.3 µM for the first, 27.8 µM for the second.

`CCN(CC)C(=C(C(Cl)=C(Cl)Cl)[N+](=O)[O-])N(CC)CC` and `CN(C)c1ccc(/C=N\NC(=O)c2ccccc2Nc2ccccc2C(=O)N/N=C/c2ccc(N(C)C)cc2)cc1` cannot be ordered by TGI: greater than 100 µM for the first, greater than 100 µM for the second.

Compared with `COc1cc(/C=C(\C#N)c2nc3ccccc3o2)ccc1O`, `CO[C@H]1c2cccc3cccc(c23)[C@@H]1n1[nH]c(=O)n(C(C)(C)C)c1=O` is higher in TGI: 34.3 µM for the first, greater than 100 µM for the second.

First: Cc1cc(C)nc(NS(=O)(=O)c2ccc(NNc3c4ccccc4nc4c(C(=O)Nc5ccc(S(=O)(=O)Nc6ncccn6)cc5)cccc34)cc2)n1
Second: CCC(C)C(C(=O)N/N=C1/SCC(=O)N1c1ccccc1)C(=O)N/N=C1/SCC(=O)N1c1ccccc1 (stereo unspecified)
The TGI of the first is 1.5-fold lower: 39.2 µM for the first, 58.9 µM for the second.

`CC12CCC3[C@@H](CC3(C)C)C(O)(CCC1=O)C2` (stereo partly specified) and `Cc1ccc2nc(CN3CCCC(O)C3)cc(=O)n2c1` (stereo unspecified) cannot be ordered by TGI: greater than 100 µM for the first, greater than 100 µM for the second.

`OC1(CCc2ccccc2)COC(C(F)(F)F)(C(F)(F)F)C1` (stereo unspecified) gave a TGI greater than 100 µM.

tested on: HCT-15 colon; assay: NCI tumour cell line growth inhibition, 48 h

`COC(=O)C1=C(O)C(C(=O)OC)[C@]2(O)[C@H](C(=O)OC)[C@H]1C[C@@H](c1ccc(F)cc1)[C@H]2C(=O)OC` (stereo partly specified) and `COC(=O)c1c(O)ccc2c1c1c(n2Cc2ccccc2)C(=O)c2ccccc2C1=O` are within 1.5-fold of each other in TGI: 40.8 µM for the first, 30.3 µM for the second.

`CCN(CC)C(=C(C(Cl)=C(Cl)Cl)[N+](=O)[O-])N(CC)CC` and `CN(C)c1ccc(/C=N\NC(=O)c2ccccc2Nc2ccccc2C(=O)N/N=C/c2ccc(N(C)C)cc2)cc1` cannot be ordered by TGI: greater than 100 µM for the first, greater than 100 µM for the second.

Compared with `COc1cc(/C=C(\C#N)c2nc3ccccc3o2)ccc1O`, `CO[C@H]1c2cccc3cccc(c23)[C@@H]1n1[nH]c(=O)n(C(C)(C)C)c1=O` is higher in TGI: 42.6 µM for the first, greater than 100 µM for the second.

`Cc1cc(C)nc(NS(=O)(=O)c2ccc(NNc3c4ccccc4nc4c(C(=O)Nc5ccc(S(=O)(=O)Nc6ncccn6)cc5)cccc34)cc2)n1` and `CCC(C)C(C(=O)N/N=C1/SCC(=O)N1c1ccccc1)C(=O)N/N=C1/SCC(=O)N1c1ccccc1` (stereo unspecified) cannot be ordered by TGI: greater than 100 µM for the first, greater than 100 µM for the second.

`CC12CCC3[C@@H](CC3(C)C)C(O)(CCC1=O)C2` (stereo partly specified) and `Cc1ccc2nc(CN3CCCC(O)C3)cc(=O)n2c1` (stereo unspecified) cannot be ordered by TGI: greater than 100 µM for the first, greater than 100 µM for the second.

In the case of `OC1(CCc2ccccc2)COC(C(F)(F)F)(C(F)(F)F)C1` (stereo unspecified), the TGI is reported as greater than 100 µM.

tested on: HOP-92 NSCLC; assay: NCI tumour cell line growth inhibition, 48 h

Going from `COC(=O)C1=C(O)C(C(=O)OC)[C@]2(O)[C@H](C(=O)OC)[C@H]1C[C@@H](c1ccc(F)cc1)[C@H]2C(=O)OC` (stereo partly specified) to `COC(=O)c1c(O)ccc2c1c1c(n2Cc2ccccc2)C(=O)c2ccccc2C1=O`, the TGI falls from greater than 100 µM to 27.1 µM.

First: CN(C)c1ccc(/C=N\NC(=O)c2ccccc2Nc2ccccc2C(=O)N/N=C/c2ccc(N(C)C)cc2)cc1
Second: Cc1cc(C)nc(NS(=O)(=O)c2ccc(NNc3c4ccccc4nc4c(C(=O)Nc5ccc(S(=O)(=O)Nc6ncccn6)cc5)cccc34)cc2)n1
The TGI of the first is higher: greater than 100 µM for the first, 66.5 µM for the second.

`COc1cc(/C=C(\C#N)c2nc3ccccc3o2)ccc1O` and `CCC(C)C(C(=O)N/N=C1/SCC(=O)N1c1ccccc1)C(=O)N/N=C1/SCC(=O)N1c1ccccc1` (stereo unspecified) are within 1.5-fold of each other in TGI: 50.8 µM for the first, 45.2 µM for the second.

`CC12CCC3[C@@H](CC3(C)C)C(O)(CCC1=O)C2` (stereo partly specified) and `Cc1ccc2nc(CN3CCCC(O)C3)cc(=O)n2c1` (stereo unspecified) cannot be ordered by TGI: greater than 100 µM for the first, greater than 100 µM for the second.

tested on: HS 578T breast; assay: NCI tumour cell line growth inhibition, 48 h

Compared with `COC(=O)C1=C(O)C(C(=O)OC)[C@]2(O)[C@H](C(=O)OC)[C@H]1C[C@@H](c1ccc(F)cc1)[C@H]2C(=O)OC` (stereo partly specified), `COC(=O)c1c(O)ccc2c1c1c(n2Cc2ccccc2)C(=O)c2ccccc2C1=O` is 1.9-fold lower in TGI: 81.8 µM for the first, 43.3 µM for the second.

Going from `CCN(CC)C(=C(C(Cl)=C(Cl)Cl)[N+](=O)[O-])N(CC)CC` to `CN(C)c1ccc(/C=N\NC(=O)c2ccccc2Nc2ccccc2C(=O)N/N=C/c2ccc(N(C)C)cc2)cc1`, the TGI rises from 68.5 µM to greater than 100 µM.

First: COc1cc(/C=C(\C#N)c2nc3ccccc3o2)ccc1O
Second: CO[C@H]1c2cccc3cccc(c23)[C@@H]1n1[nH]c(=O)n(C(C)(C)C)c1=O
The TGI of the first is lower: 75.2 µM for the first, greater than 100 µM for the second.

`Cc1cc(C)nc(NS(=O)(=O)c2ccc(NNc3c4ccccc4nc4c(C(=O)Nc5ccc(S(=O)(=O)Nc6ncccn6)cc5)cccc34)cc2)n1` and `CCC(C)C(C(=O)N/N=C1/SCC(=O)N1c1ccccc1)C(=O)N/N=C1/SCC(=O)N1c1ccccc1` (stereo unspecified) cannot be ordered by TGI: greater than 100 µM for the first, greater than 100 µM for the second.

`CC12CCC3[C@@H](CC3(C)C)C(O)(CCC1=O)C2` (stereo partly specified) and `Cc1ccc2nc(CN3CCCC(O)C3)cc(=O)n2c1` (stereo unspecified) cannot be ordered by TGI: greater than 100 µM for the first, greater than 100 µM for the second.

With `OC1(CCc2ccccc2)COC(C(F)(F)F)(C(F)(F)F)C1` (stereo unspecified) the TGI was greater than 100 µM.

tested on: LOX IMVI melanoma; assay: NCI tumour cell line growth inhibition, 48 h

For `COC(=O)C1=C(O)C(C(=O)OC)[C@]2(O)[C@H](C(=O)OC)[C@H]1C[C@@H](c1ccc(F)cc1)[C@H]2C(=O)OC` (stereo partly specified), the TGI was 42.1 µM.
